Reference: patent US9772337B2, “Compositions and methods for functional gylcomics” (Emory University, priority 2010, dated 2017)

System: anti-GD1a antibody
Test: BBG GSL-AOAB shotgun microarray binding assay with anti-GD1a antibody
Details: fractions printed at 10 μM on NHS-slides

Substance: Neu5Acα2-3Galβ1-3GalNAcβ1-4(Neu5Acα2-3)Galβ1-4Glcβ1-R [GD1a-AOAB]
- binding of anti-GD1a antibody to BBG GSL-AOAB fractions: primarily bound
